For one assay, the target named is T1, hMOR-1 (Homo sapiens, UniProt P35372).
T1 construct: purchased Amersham Biosciences; host or cells: stably transfected CHO cells (membrane preparation)
Briefly: Opioid receptor competitive binding assay, MOR (3H-DAMGO). How it is done: (§1) For selected compounds, Ki for MOR, DOR, and KOR were determined according to the following procedure: Recombinant hMOR-1 membrane preps from stably transfected CHO cells and recombinant hDOR-1 membrane preps from stably transfected HEK-293 cells were purchased from Amersham Biosciences. Guinea pig cerebellum preparations were used for KOR assays.
(§2) Each microassay from an assay plate was filtered through an individual well of a Packard GF/B 96-well filter plate (glass fiber filter) to collect the membranes. Each well was washed twice with 200 μL of ice cold wash buffer (50 mM Tris, pH 7.4). The filter plate was allowed to dry overnight, the back was sealed, and Packard Bioscience Microscint PS scintillation fluid (75 μL) was added to each well, which was then counted for ^3H for 2 minutes using a Packard Bioscience TopCount scintillation counter plate reader.
(§3) Each compound was assayed at 8 concentrations, using half-log serial dilutions. Each concentration was tested in triplicate, and the ^3H cpm were averaged.
(§4) This concentration was determined experimentally by scintillation counting an aliquot of the radioligand stock solution used in the assay.
(§5) Kd=the binding constant for the radioligand.
(§6) This triplicate experiment was repeated three times for the MOR and twice for the DOR and the KOR.

In the next assay the target is T2, hDOR-1 (Homo sapiens, UniProt P41143).
T2 construct: purchased Amersham Biosciences; host or cells: stably transfected HEK-293 cells (membrane preparation)
Briefly: Opioid receptor competitive binding assay, DOR. The note with it: for Ki: Ki DOR, Table 6, footnote:, hDOR-1 stably transfected into HEK-293 cells, errors two standard deviations; for Ki DOR/Ki MOR: Table 12, selectivity for MOR versus DOR (3H-DPDPE, hDOR-1). How it is done:
as §1, §2, §3, §4, §5, §6

In another assay the target is T3, KOR (Cavia porcellus, UniProt P41144).
T3 construct: from tissue; host or cells: guinea pig cerebellum preparation
Briefly: Opioid receptor competitive binding assay, KOR (3H-U-69,593). Set-up: species or system guinea pig. Conditions: for Ki KOR/Ki MOR: Table 12, selectivity for MOR versus KOR. As to the method:
as §1, §2, §3, §6

Where [1] appears, read: Ki MOR, Table 3, 3H-DAMGO, hMOR-1 stably transfected into CHO cells, errors 95% confidence interval.
Where [2] appears, read: Ki KOR, Table 9, 3H-U-69,593, guinea pig cerebellum preps, errors two standard deviations.

SMILES strings stand for the structures. Read-outs that look alike come from different tables or passages of the source.

As for `NC(Cc1ccc(O)cc1)C(O)C/C=C/C(O)C(Cc1ccccc1)C(=O)NCCc1ccccc1` (single isomer, unassigned) [(S,S,R,R)-10, (E)-8-Amino-2-benzyl-3,7-dihydroxy-9-(4-hydroxy-phenyl)-non-4-enoic acid phenethyl-amide], the Ki at hMOR-1 (setting [1]) was 29 ± 8 nM; on hDOR-1, 1200 ± 300 nM; at KOR (setting [2]), 3400 ± 300 nM. The “Ki DOR/Ki MOR” value at hDOR-1 is 42. Further, at KOR, the “Ki KOR/Ki MOR” value turned out to be 120.
The like results for `NC(=O)C(Cc1ccccc1)NC(=O)C(Cc1ccccc1)C(O)/C=C/CC(O)C(N)Cc1ccc(O)cc1` (single isomer, unassigned) [(S,R,R,R)-2, (E)-8-Amino-2-benzyl-3,7-dihydroxy-9-(4-hydroxy-phenyl)-non-4-enoic acid (1-carbamoyl-2-phenyl-ethyl)-amide] were, in that order, 67 ± 38 nM, 1400 ± 300 nM, 1200 ± 100 nM, 21 and 18.
The corresponding values for `C=CC(O)C(Cc1ccccc1)NC(=O)C(Cc1ccccc1)C(O)/C=C/CC(O)C(N)Cc1ccc(O)cc1` (single isomer, unassigned) [(S,S,R,R)-12, (E)-8-Amino-2-benzyl-3,7-dihydroxy-9-(4-hydroxy-phenyl)-non-4-enoic acid (1-benzyl-2-hydroxy-but-3-enyl)-amide] are 22 ± 4 nM, 620 ± 70 nM, 770 ± 130 nM, 28 and 35.
Turning to `NC(Cc1ccc(O)cc1)C(O)C/C=C/C(O)C(Cc1ccccc1)C(=O)NC(CO)Cc1ccccc1` (single isomer, unassigned) [(S,S,S,R)-11, (E)-8-Amino-2-benzyl-3,7-dihydroxy-9-(4-hydroxy-phenyl)-non-4-enoic acid (1-hydroxymethyl-2-phenyl-ethyl)-amide], the Ki amounted to 10 ± 2 nM on hMOR-1 (setting [1]), 1100 ± 100 nM on hDOR-1 and 6000 ± 700 nM on KOR (setting [2]). The “Ki DOR/Ki MOR” value at hDOR-1 was determined as 110. In addition, on KOR, the “Ki KOR/Ki MOR” value is 600.
The corresponding values for `NC(=O)C(Cc1ccccc1)NC(=O)C(Cc1ccccc1)C(O)/C=C\CC(O)C(N)Cc1ccc(O)cc1` (single isomer, unassigned) [(S,S,S,R)-9, (Z)-8-Amino-2-benzyl-3,7-dihydroxy-9-(4-hydroxy-phenyl)-non-4-enoic acid (1-carbamoyl-2-phenyl-ethyl)-amide] are 370 ± 150 nM, 2200 ± 100 nM, 6100 ± 3000 nM, 6 and 16.
In the case of `NC(=O)C(Cc1ccccc1)NC(=O)C(Cc1ccccc1)C(O)/C=C/CC(O)C(N)Cc1ccc(O)cc1` (single isomer, unassigned) [(S,R,S,R)-2, (E)-8-Amino-2-benzyl-3,7-dihydroxy-9-(4-hydroxy-phenyl)-non-4-enoic acid (1-carbamoyl-2-phenyl-ethyl)-amide], the inhibition constant (Ki) at hMOR-1 (setting [1]) is 160 ± 40 nM; on hDOR-1 it was 850 ± 30 nM; at KOR (setting [2]) it was 2900 ± 800 nM. Also, at hDOR-1, the “Ki DOR/Ki MOR” value was 5. In addition, the “Ki KOR/Ki MOR” value at KOR is 18.
As to `NC(=O)C(Cc1ccccc1)NC(=O)C(Cc1ccccc1)C(O)CCCC(O)C(N)Cc1ccc(O)cc1` (single isomer, unassigned) [(S,S,S,R)-6, 8-Amino-2-benzyl-3,7-dihydroxy-9-(4-hydroxy-phenyl)-nonanoic acid (1-carbamoyl-2-phenyl-ethyl)-amide], the Ki stood at 98 ± 31 nM at hMOR-1 (setting [1]) and 3900 ± 1700 nM on KOR (read-out: Ki KOR).
With `NC(=O)C(Cc1ccccc1)NC(=O)C(Cc1ccccc1)C(O)CCCC(O)C(N)Cc1ccc(O)cc1` (single isomer, unassigned) [(S,R,R,R)-6, 8-Amino-2-benzyl-3,7-dihydroxy-9-(4-hydroxy-phenyl)-nonanoic acid (1-carbamoyl-2-phenyl-ethyl)-amide], the inhibition constant (Ki) on hMOR-1 (read-out: Ki MOR) came to 120 ± 30 nM; on KOR (read-out: Ki KOR), 1500 ± 700 nM.

Broadly, the Ki is the equilibrium dissociation constant of an inhibitor or competing ligand from its target.

Values taken from patent US7223888B2, “Mu opioid receptor ligands: methods of use and synthesis” (President and Fellows of Harvard College, priority 2002, dated 2007).
